In assay [1] the target is T1, α4β1 integrin (Jurkat T-cell adhesion to IL-1 stimulated endothelial cell monolayers) (Homo sapiens, UniProt P05556+P13612).
T1 construct: a T-cell line, Jurkat, known to express the α4β1 integrin; host or cells: Jurkat T-cell line
Nature of the assay: Jurkat-endothelial cell adhesion assay (Jurkat EC). It is filed as cell-based. As to conditions: Jurkat cells on IL-1 stimulated human umbilical vein endothelial cells; read-out: JK/EC (Jurkat EC Assay IC50 value range). In short, it runs like this:
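BCECF-AM-labelled Jurkat cells were mixed with compound, generally 100, 20, 5 and 1.25 μM, and added to HUVEC monolayers (passage ≤6) pre-stimulated 4 hr at 37° C with 0.1 ng/ml IL-1. After 5 min on ice and 20 min at 37° C, washed wells were read by fluorescence as % adhesion relative to no compound.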

Assay [2] concerns the target T2, α4β1 integrin (Jurkat cell adhesion to immobilized CS-1 derived peptide CLHPGEILDVPST) (Homo sapiens, UniProt P05556+P13612).
T2 construct: 100 μl of Jurkat cells (2.5×10^6 cells/ml) in DMEM plus BSA; host or cells: Jurkat T-cell line
Nature of the assay: Jurkat-CS-1 assay. It is filed as cell-based. As to conditions: Jurkat cells on CS-1 peptide coated plates; read-out: JK/CS-1 (Jurkat CS-1 Assay IC50 value range). In short, it runs like this:
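CS-1 peptide was SPDP-crosslinked onto HSA-coated plates and blocked with BSA. Jurkat cells (2.5×10^6 cells/ml) in DMEM/BSA were mixed with compound, generally at 100, 20, 5 and 1.25 μM, and allowed to adhere for 1 hr at 37° C. Bound cells were fixed, stained with toluidine blue and quantified by OD590.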

Structures are written as SMILES.

T2 sequence (P13612 34-1032): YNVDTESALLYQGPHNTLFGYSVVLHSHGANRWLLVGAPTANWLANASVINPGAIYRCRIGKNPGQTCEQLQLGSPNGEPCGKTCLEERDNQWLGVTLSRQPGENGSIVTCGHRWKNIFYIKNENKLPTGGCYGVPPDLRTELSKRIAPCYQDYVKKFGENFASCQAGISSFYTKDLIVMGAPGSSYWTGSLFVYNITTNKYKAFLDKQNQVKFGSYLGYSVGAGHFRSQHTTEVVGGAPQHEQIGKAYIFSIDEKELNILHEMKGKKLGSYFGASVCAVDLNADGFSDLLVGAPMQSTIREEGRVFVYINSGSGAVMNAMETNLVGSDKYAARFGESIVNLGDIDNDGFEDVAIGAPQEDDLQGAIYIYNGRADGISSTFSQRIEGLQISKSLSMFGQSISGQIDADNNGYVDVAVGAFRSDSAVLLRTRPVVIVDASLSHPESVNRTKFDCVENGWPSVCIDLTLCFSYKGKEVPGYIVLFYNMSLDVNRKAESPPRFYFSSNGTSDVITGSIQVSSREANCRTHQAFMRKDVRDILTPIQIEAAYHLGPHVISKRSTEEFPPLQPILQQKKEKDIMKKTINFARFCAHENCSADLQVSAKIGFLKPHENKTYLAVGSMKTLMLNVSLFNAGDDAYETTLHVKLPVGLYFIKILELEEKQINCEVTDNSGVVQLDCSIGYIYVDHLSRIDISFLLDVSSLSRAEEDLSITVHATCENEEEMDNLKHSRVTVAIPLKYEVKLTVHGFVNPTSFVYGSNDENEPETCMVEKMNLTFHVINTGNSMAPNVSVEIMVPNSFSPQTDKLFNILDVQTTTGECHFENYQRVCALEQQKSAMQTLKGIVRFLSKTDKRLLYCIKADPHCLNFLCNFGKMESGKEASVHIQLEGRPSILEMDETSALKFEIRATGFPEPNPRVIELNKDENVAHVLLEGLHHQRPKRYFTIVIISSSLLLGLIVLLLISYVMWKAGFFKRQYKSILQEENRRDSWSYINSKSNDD
T2 sequence (P05556 21-798): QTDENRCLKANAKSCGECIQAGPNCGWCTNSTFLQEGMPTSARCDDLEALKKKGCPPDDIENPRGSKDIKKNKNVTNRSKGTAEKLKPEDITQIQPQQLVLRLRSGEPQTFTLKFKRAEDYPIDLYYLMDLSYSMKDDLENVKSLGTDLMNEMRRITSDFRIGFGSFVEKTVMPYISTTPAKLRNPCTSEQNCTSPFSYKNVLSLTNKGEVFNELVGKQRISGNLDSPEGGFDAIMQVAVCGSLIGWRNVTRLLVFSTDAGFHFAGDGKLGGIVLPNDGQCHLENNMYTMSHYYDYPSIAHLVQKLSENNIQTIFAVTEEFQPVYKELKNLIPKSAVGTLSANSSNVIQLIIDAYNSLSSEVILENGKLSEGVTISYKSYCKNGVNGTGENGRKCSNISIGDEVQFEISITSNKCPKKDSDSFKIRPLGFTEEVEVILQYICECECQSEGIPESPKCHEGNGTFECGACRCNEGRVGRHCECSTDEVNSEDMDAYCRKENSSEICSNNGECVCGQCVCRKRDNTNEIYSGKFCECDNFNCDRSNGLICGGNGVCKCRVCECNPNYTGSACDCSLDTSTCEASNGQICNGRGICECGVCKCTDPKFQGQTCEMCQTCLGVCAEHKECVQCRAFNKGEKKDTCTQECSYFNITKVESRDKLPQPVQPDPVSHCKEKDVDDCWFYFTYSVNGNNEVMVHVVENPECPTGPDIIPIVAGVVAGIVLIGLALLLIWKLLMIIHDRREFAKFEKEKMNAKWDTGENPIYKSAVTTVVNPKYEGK
T1 sequence (P13612 34-1032): as the sequence (P13612 34-1032) above
T1 sequence (P05556 21-798): as the sequence (P05556 21-798) above

In the case of `CCOC(=O)N1[C@@H](C(=O)N[C@@H](Cc2ccc(NC(=O)c3c(Cl)cccc3Cl)cc2)C(=O)OC)CSC12CCCCC2` (relative stereo) [Example 79, [S-(R*,R*)]-3-[[[1-[[4-[(2,6-Dichlorobenzoyl)amino]phenyl]methyl]-2-methoxy-2-oxoethyl]amino]carbonyl]-1-thia-4-azaspiro[4.5]decanecarboxylic Acid 4-Ethyl Ester], the IC50 in assay [1] was no less than 1000 nM; in assay [2] it was no less than 750 nM.

On to `CCOC(=O)N1[C@@H](C(=O)N[C@@H](Cc2ccc(NC(=O)c3c(Cl)cccc3Cl)cc2)C(=O)O)CSC12CCCCC2` (relative stereo) [Example 80, [S-(R*,R*)]-3-[[[1-Carboxy-2-[4-[(2,6-dichlorobenzoyl)amino]phenyl]ethyl]amino]carbonyl]-1-thia-4-azaspiro[4.5]decane-4-carboxylic Acid 4-Ethyl Ester], for which the IC50 in assay [1] is no less than 1000 nM; in assay [2] it was no less than 750 nM.

Regarding `CCOC(=O)N1[C@@H](C(=O)N[C@@H](Cc2ccc(NC(=O)c3c(Cl)cccc3Cl)cc2)C(=O)O)C(C)(C)SC1(C)C` (relative stereo) [Example 82, [S-(R*,R*)]-4-[[[1-Carboxy-2-[4-[(2,6-dichlorobenzoyl)amino]phenyl]ethyl]amino]carbonyl]-2,2,5,5-tetramethyl-3-thiazolidinecarboxylic Acid 3-Ethyl Ester], the results for the IC50 in assay [1] and in assay [2] were 250 to 1000 nM and 50 to 750 nM, respectively.

For the compound `CC1(C)SC[C@H](C(=O)N[C@@H](Cc2ccc(NC(=O)c3c(Cl)cccc3Cl)cc2)C(=O)O)N1C(=O)CCC(=O)O` (relative stereo) [Example 85, [S-(R*,R*)]-4-[[[1-Carboxy-2-[4-[(2,6-dichlorobenzoyl)amino]phenyl]ethyl]amino]carbonyl]-2,2-dimethyl-γ-oxo-3-thiazolidinebutanoic Acid], the IC50 was no more than 250 nM in assay [1] and no more than 50 nM in assay [2].

As for `COC(=O)CCC(=O)N1[C@@H](C(=O)N[C@@H](Cc2ccc(NC(=O)c3c(Cl)cccc3Cl)cc2)C(=O)OC)C(C)(C)SC1(C)C` (relative stereo) [Example 86, [S-(R*,R*)]-4-[[[1-[[4-[(2,6-Dichlorobenzoyl)amino]phenyl]methyl]-2-methoxy-2-oxoethyl]amino]carbonyl]-2,2,5,5-tetramethyl-γ-oxo-3-thiazolidinebutanoic Acid Methyl Ester], the figures for the IC50 in assay [1] and in assay [2] were no less than 1000 nM and no less than 750 nM, respectively.

Consider `CC1(C)SC(C)(C)N(C(=O)CCCC(=O)O)[C@@H]1C(=O)N[C@@H](Cc1ccc(NC(=O)c2c(Cl)cccc2Cl)cc1)C(=O)O` (relative stereo) [Example 88, [R-(R*,S*)]-4-[[[1-Carboxy-2-[4-[(2,6-dichlorobenzoyl)amino]phenyl]ethyl]amino]carbonyl]-2,2,5,5-tetramethyl-δ-oxo-3-thiazolidinepentanoic Acid], for which the IC50 in assay [1] is no less than 1000 nM; in assay [2] it was 50 to 750 nM.

Regarding `NC(=O)[C@H](Cc1ccc(OCc2c(Cl)cccc2Cl)cc1)NC(=O)[C@H]1CSCN1C(=O)OCCN1CCOCC1` (relative stereo) [Example 89, [S-(R*,R*)]-4-[[[1-[[4-[(2,6-Dichlorophenyl)methoxy]phenyl]methyl]-2-amino-2-oxoethyl]amino]carbonyl]-3-thiazolidinecarboxylic Acid 3-[2-(4-morpholinyl)ethyl]ester], the IC50 in assay [1] is no less than 1000 nM; in assay [2] it was 50 to 750 nM.

As to `O=C(O)CCC(=O)N1CCSC[C@H]1C(=O)N[C@@H](Cc1ccc(NC(=O)c2c(Cl)cccc2Cl)cc1)C(=O)O` (relative stereo) [Example 99, [R-(R*,S*)]-3-[[[1-Carboxy-2-[4-[(2,6-dichlorobenzoyl)amino]phenyl]ethyl]amino]carbonyl]-γ-oxo-4-thiomorpholinebutanoic Acid], the IC50 in assay [1] was no more than 250 nM; in assay [2], no more than 50 nM.

With `CC(C)(C)OC(=O)N1CCSC[C@H]1C(=O)N[C@@H](Cc1ccc(NC(=O)c2c(Cl)cccc2Cl)cc1)C(=O)O` (relative stereo) [Example 100, [R-(R*,S*)]-3-[[[1-Carboxy-2-[4-[(2,6-dichlorobenzoyl)amino]phenyl]ethyl]amino]carbonyl]-4-thiomorpholinecarboxylic Acid 4-(1,1-Dimethylethyl)ester], the IC50 in assay [1] was 250 to 1000 nM; in assay [2], 50 to 750 nM.

Turning to `COC(=O)[C@H](Cc1ccc(NC(=O)c2c(Cl)cccc2Cl)cc1)NC(=O)[C@H]1CSCN1C(=O)OCc1ccccn1` (relative stereo) [Example 148, [S-(R*,R*)]-4-[[[1-[[4-[(2,6-Dichlorobenzoyl)amino]phenyl]methyl]-2-methoxy-2-oxoethyl]amino]carbonyl]-3-thiazolidinecarboxylic Acid 3-(2-Pyridinylmethyl)ester], the IC50 is no more than 250 nM in assay [1] and no more than 50 nM in assay [2].

On to `O=C(Nc1ccc(C[C@H](NC(=O)[C@H]2CSCN2C(=O)OCc2ccccn2)C(=O)O)cc1)c1c(Cl)cccc1Cl` (relative stereo) [Example 149, [S-(R*,R*)]-4-[[[-Carboxy-2-[4-[(2,6-dichlorobenzoyl)amino]phenyl]ethyl]amino]carbonyl]-3-thiazolidinecarboxylic Acid 3-(2-pyridinylmethyl)ester], for which the IC50 in assay [1] is no more than 250 nM; in assay [2], no more than 50 nM.

In the case of `COC(=O)[C@H](Cc1ccc(NC(=O)c2c(Cl)cccc2Cl)cc1)NC(=O)[C@H]1CSCN1C(=O)CCCC(=O)O` (relative stereo) [Example 150, [S-(R*,R*)]-4-[[[1-[[4-[(2,6-Dichlorobenzoyl)amino]phenyl]methyl]-2-methoxy-2-oxoethyl]amino]carbonyl]-δ-oxo-3-thiazoidinepentanoic Acid], the figures for the IC50 in assay [1] and in assay [2] were 250 to 1000 nM and 50 to 750 nM, respectively.

`COC(=O)CCCC(=O)N1CSC[C@@H]1C(=O)N[C@@H](Cc1ccc(NC(=O)c2c(Cl)cccc2Cl)cc1)C(=O)O` (relative stereo) [Example 151, [S-(R*,R*)]-4-[[[1-Carboxy-2-[4-[(2,6-dichlorobenzoyl)amino]phenyl]ethyl]amino]carbonyl]-δ-oxo-3-thiazoidinepentanoic Acid Methyl Ester]: the IC50 in assay [1] was no more than 250 nM; in assay [2], no more than 50 nM.

For the compound `O=C(O)[C@H](Cc1ccc(OCc2c(Cl)cccc2Cl)cc1)NC(=O)[C@H]1CSCN1C(=O)OCCN1CCCCC1` (relative stereo) [Example 152, [S-(R*,R*)]-4-[[[1-Carboxy-2-[4-[(2,6-dichlorophenyl)methoxy]phenyl]ethyl]amino]carbonyl]-3-thiazolidinecarboxylic Acid 3-[2-(1-Piperidinyl)ethyl]ester], the IC50 in assay [1] is no more than 250 nM; in assay [2], no more than 50 nM.

Consider `CCOC(=O)N1[C@@H](C(=O)N[C@@H](Cc2ccc(OCc3c(Cl)cccc3Cl)cc2)C(=O)O)CSC12CCN(C)CC2` (relative stereo) [Example 155, [S-(R*,R*)]-3-[[[1-Carboxy-2-[4-[(2,6-dichlorophenyl)methoxy]phenyl]ethyl]amino]carbonyl]-8-methyl-1-thia-4,8-diazaspiro[4.5]decane-4-carboxylic Acid 4-Ethyl Ester], for which the IC50 in assay [1] is no less than 1000 nM; in assay [2], no less than 750 nM.

As to `O=C(O)CCC(=O)N1CCCCC[C@H]1C(=O)N[C@@H](Cc1ccc(NC(=O)c2c(Cl)cccc2Cl)cc1)C(=O)O` (relative stereo) [Example 157, [S-(R*,R*)]-2-[[[1-Carboxy-2-[4-[(2,6-dichlorobenzoyl)amino]phenyl]ethyl]amino]carbonyl]-hexahydro-γ-oxo-1H-azepine-1-butanoic Acid], the IC50 is no more than 250 nM in assay [1] and 50 to 750 nM in assay [2].

For the compound `CCOC(=O)N1[C@@H](C(=O)N[C@@H](Cc2ccc(OCc3c(Cl)cccc3Cl)cc2)C(=O)O)CSC12CCCC2` (relative stereo) [Example 161, [S-(R*,R*)]-3-[[[1Carboxy-2-[4-[(2,6-dichlorophenyl)methoxy]phenylethyl]amino]carbonyl]-1-thia-4-azapiro[4.4]nonane-4-carboxylic Acid 4-Ethyl Ester], the IC50 in assay [1] is no less than 1000 nM; in assay [2] it was no less than 750 nM.

In the case of `CC(c1ccccc1)N1C(C(=O)O)CC1C(=O)NC(Cc1ccc(NC(=O)c2c(Cl)cccc2Cl)cc1)C(=O)O` (single isomer, unassigned) [Example 133], the IC50 is no less than 1000 nM in assay [1] and no less than 750 nM in assay [2].

In the case of `CC(c1ccccc1)N1C(C(=O)O)CC1C(=O)NC(Cc1ccc(NC(=O)c2c(Cl)cccc2Cl)cc1)C(=O)O` (single isomer, unassigned) [Example 139], the IC50 in assay [1] is no less than 1000 nM; in assay [2], 50 to 750 nM.

As to `COC(=O)[C@H](Cc1ccc(NC(=O)c2c(Cl)cccc2Cl)cc1)NC(=O)[C@@H]1CSCN1C(=O)OC(C)(C)C` (stereo in doubt) [Example 13, [R-(R*,S*)]-4-[[[1-[[4-[(2,6-Dichlorobenzoyl)amino]phenyl]methyl]-2-methoxy-2-oxoethyl]amino]carbonyl]-3-thiazolidinecarboxylic Acid 3-(1,1-Dimethylethyl)ester], the IC50 in assay [1] is no less than 1000 nM; in assay [2], no less than 750 nM.

The values are drawn from patent US6685617B1, “Inhibitors of α4β1 mediated cell adhesion” (Pharmacia & Upjohn Company, priority 1998, dated 2004).
